Data reported in patent US11319309B2, “Cyclohexyl acid isoxazole azines as LPA antagonists” (BRISTOL-MYERS SQUIBB COMPANY, priority 2017, dated 2022).

Assays:
human LPA1 = biological target: T1, human LPA1 (Homo sapiens, UniProt Q92633); assay: LPA1 functional antagonist assay (calcium flux); format: cell-based; settings: CHO cells overexpressing human LPA1; inhibition of calcium flux induced by 10 nM LPA; read-out: hLPA1 IC50
T1 construct: expressed in transfected cells; host or cells: Chinese hamster ovary (CHO) cells
Procedure: The effectiveness of compounds of the present invention as LPA1 inhibitors can be determined in an LPA1 functional antagonist assay as follows:
Chinese hamster ovary cells overexpressing human LPA1 were plated overnight (15,000 cells/well) in poly-D-lysine coated 384-well microplates (Greiner bio-one, Cat #781946) in DMEM/F12 medium (Gibco, Cat #11039). Following overnight culture, cells were loaded with calcium indicator dye (AAT Bioquest Inc, Cat #34601) for 30 minutes at 37° C. The cells were then equilibrated to room temperature for 30 minutes before the assay. Test compounds solubilized in DMSO were transferred to 384 well non-binding surface plates (Corning, Cat #3575) using the Labcyte Echo acoustic dispense and diluted with assay buffer [1X HBSS with calcium/magnesium (Gibco Cat #14025-092), 20 mM HEPES (Gibco Cat #15630-080) and 0.1% fatty acid free BSA (Sigma Cat # A9205)] to a final concentration of 0.5% DMSO. Diluted compounds were added to the cells by FDSS6000 (Hamamatsu) at final concentrations ranging from 0.08 nM to 5 μM. and were then incubated for 20 min at room temperature at which time LPA (Avanti Polar Lipids Cat #857130C) was added at final concentrations of 10 nM to stimulate the cells. The compound IC50 value was defined as the concentration of test compound which inhibited 50% of the calcium flux induced by LPA alone. IC50 values were determined by fitting data to a 4-parameter logistic equation (GraphPad Prism, San Diego Calif.).

IPF patients = settings: 26-week clinical trial, IPF patients (Palmer et al., Chest 2018); cited from earlier work
nerve-injured mice = settings: pretreatment, nerve-injured mice (Inoue et al. 2004); cited from earlier work
[1] = test system: mouse epithelial renal cell line, MCT; settings: MCT cells, co-treatment with LPA; cited from earlier work
[2] = test system: human foetal lung fibroblasts; settings: induced by BAL obtained from IPF patients (Tager et al. 2008); cited from earlier work
[3] = test system: pancreatic cancer cell lines; settings: cited from earlier work
UUO mice = UUO mice treated with antagonist, compared with LPA1 (-/-) mice; cited from earlier work

T1 sequence (Q92633 whole entry): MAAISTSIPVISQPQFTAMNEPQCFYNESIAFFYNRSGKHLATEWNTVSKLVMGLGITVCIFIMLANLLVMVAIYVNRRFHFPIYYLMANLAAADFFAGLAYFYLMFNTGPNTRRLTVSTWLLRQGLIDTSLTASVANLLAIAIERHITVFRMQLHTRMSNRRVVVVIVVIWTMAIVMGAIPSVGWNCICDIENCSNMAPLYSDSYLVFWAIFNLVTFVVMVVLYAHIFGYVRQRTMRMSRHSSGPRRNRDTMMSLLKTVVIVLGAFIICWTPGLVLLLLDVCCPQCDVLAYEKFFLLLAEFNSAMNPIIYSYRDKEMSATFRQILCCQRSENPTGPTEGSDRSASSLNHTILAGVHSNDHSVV

SMILES	IC50 (human LPA1) [nM]	also measured
Cc1noc(-c2ccc(O[C@@H]3CCC[C@H](C(=O)O)C3)cc2)c1COc1nccc(-c2ccccc2)n1 (racemic) [Example 29, (±)-Cis-3-(4-(3-Methyl-4-(((4-phenylpyrimidin-2-yl)oxy)methyl)isoxazol-5-yl)phenoxy)cyclo-hexanecarboxylic Acid]	209	
Cc1noc(-c2ccc(O[C@@H]3CCC[C@@H](C(=O)O)C3)cc2)c1COc1nccc(-c2ccccc2)n1 (racemic) [Example 30, (±)-Trans-3-(4-(3-methyl-4-(((4-phenylpyrimidin-2-yl)oxy)methyl)isoxazol-5-yl)phenoxy)cyclohexanecarboxylic Acid]	47	
Cc1noc(-c2ccc(-c3ccc(C4(C(=O)O)CC4)cc3)cc2)c1NC(=O)O[C@H](C)c1ccccc1 [BMS-986020]		rate of FVC (forced vital capacity) decline (IPF patients): significantly reduce
Cc1nc(-c2onc(C)c2CNc2ncnc(C(C)C)n2)ccc1O[C@H]1CCC[C@H](C(=O)O)C1 [Example 2, (1 S,3 S)-3-((6-(4-(((4-isopropyl-1,3,5-triazin-2-yl)amino)methyl)-3-methylisoxazol-5-yl)-2-methylpyridin-3-yl)oxy)cyclohexane-1-carboxylic Acid]	43	
Cc1noc(-c2ccc(O[C@H]3CCC[C@@H](C(=O)O)C3)cn2)c1CNc1nccc(-c2ccccc2)n1 [Example 4]	39	
Cc1cc(N2CCCCC2)nc(NCc2c(C)noc2-c2ccc(O[C@H]3CCC[C@H](C(=O)O)C3)cn2)n1 [Example 12]	1100	
Cc1noc(-c2ccc(O[C@H]3CCC[C@H](C(=O)O)C3)cn2)c1CNc1nccc(-c2ccccn2)n1 [Example 13]	32	
Cc1nc(-c2onc(C)c2CNc2nccc(-c3ccccn3)n2)ccc1O[C@H]1CCC[C@H](C(=O)O)C1 [Example 14]	64	
Cc1nc(-c2onc(C)c2CNc2ncc(F)c(NC(C)C)n2)ccc1O[C@H]1CCC[C@H](C(=O)O)C1 [Example 18]	88	
Cc1nc(-c2onc(C)c2CNc2ncnc(C3CC3)n2)ccc1O[C@H]1CCC[C@H](C(=O)O)C1 [Example 19]	76	
Cc1nc(-c2onc(C)c2CNc2ncnc(C3CCC3)n2)ccc1O[C@H]1CCC[C@H](C(=O)O)C1 [Example 20]	64	
Cc1nc(-c2onc(C)c2CNc2ncnc(C3CCCC3)n2)ccc1O[C@H]1CCC[C@H](C(=O)O)C1 [Example 21]	60	
Cc1noc(-c2ccc(O[C@@H]3CCC[C@@H](C(=O)O)C3)cc2)c1CNc1nccc(-c2ccccc2)n1 [Example 22]	47	
Cc1noc(-c2ccc(O[C@H]3CCC[C@H](C(=O)O)C3)cn2)c1CNc1ncc(F)c(NC(C)C)n1 [Example 24]	32	
Cc1noc(-c2ccc(O[C@H]3CCC[C@H](C(=O)O)C3)cn2)c1CNc1ncnc(C(C)C)n1 [Example 26]	38	
Cc1noc(-c2ccc(O[C@H]3CCC[C@H](C(=O)O)C3)cn2)c1CNc1ncnc(C2CCC2)n1 [Example 27]	33	
C[C@@H](N)[C@H]1CC[C@H](C(=O)Nc2ccncc2)CC1 [Example Y-27632]		allodynia and hyperalgesia (nerve-injured mice): completely abolished
Cc1noc(-c2ccc(CSCCC(=O)O)cc2)c1NC(=O)OC(C)c1ccccc1Cl (stereo not shown) [Ki16425]		induction of CTGF expression by LPA [1]: almost completely suppressed; chemotaxis of human foetal lung fibroblasts [2]: blocked; LPA-induced and ascites-induced invasion activity ([3]; highly peritoneal metastatic pancreatic cancer cell line (Yamada et al. 2004)): blocked; in vitro migration in response to LPA and peritoneal fluid (ascites) ([3]; pancreatic cancer cell lines (Yamada et al. 2004)): effectively blocked; development of renal fibrosis (UUO mice): closely resembled the profile of LPA1 (−/−) mice

Now from value to compound, other results behind:

IC50 (human LPA1) [nM]	SMILES	also measured
14	Cc1noc(-c2ccc(O[C@H]3CCC[C@H](C(=O)O)C3)cn2)c1CNc1nccc(-c2ccccc2)n1 [Example 1, (1S,3S)-3-((6-(3-methyl-4-(((4-phenylpyrimidin-2-yl)amino)methyl)isoxazol-5-yl)pyridin-3-yl)oxy) cyclohexane-1-carboxylic Acid]	
18	Cc1noc(-c2ccc(O[C@H]3CCC[C@H](C(=O)O)C3)cn2)c1CNc1nccc(-c2ccccc2)n1 [Example 3]	
21	Cc1noc(-c2ccc(O[C@H]3CCC[C@H](C(=O)O)C3)cn2)c1CNc1cc(-c2ccccc2)ccn1 [Example 5]	
7.8	Cc1noc(-c2ccc(O[C@H]3CCC[C@](F)(C(=O)O)C3)cn2)c1CNc1nccc(-c2ccccc2)n1 [Example 6]	
6	Cc1noc(-c2ccc(O[C@H]3CCC[C@H](C(=O)O)C3)cn2)c1CNc1nccc(Oc2ccccc2)n1 [Example 7]	
16	Cc1cc(-c2ccccc2)nc(NCc2c(C)noc2-c2ccc(O[C@H]3CCC[C@H](C(=O)O)C3)cn2)n1 [Example 8]	
20	Cc1cc(Oc2ccccc2)nc(NCc2c(C)noc2-c2ccc(O[C@H]3CCC[C@H](C(=O)O)C3)cn2)n1 [Example 9]	
18	Cc1noc(-c2ccc(O[C@H]3CCC[C@H](C(=O)O)C3)cn2)c1CNc1nccc(C2CC2)n1 [Example 10]	
17	Cc1cc(OC(C)C)nc(NCc2c(C)noc2-c2ccc(O[C@H]3CCC[C@H](C(=O)O)C3)cn2)n1 [Example 11]	
4.9	Cc1cnc(NCc2c(C)noc2-c2ccc(O[C@H]3CCC[C@H](C(=O)O)C3)cn2)nc1-c1ccccc1 [Example 15]	
14	Cc1noc(-c2ccc(O[C@H]3CCC[C@@H](C(=O)O)C3)cn2)c1CNc1nccc(-c2ccccc2)n1 [Example 16]	
26	CCOc1ccnc(NCc2c(C)noc2-c2ccc(O[C@H]3CCC[C@H](C(=O)O)C3)c(C)n2)n1 [Example 17, (1S,3S)-3-((6-(4-(((4-Ethoxypyrimidin-2-yl)amino)methyl)-3-methylisoxazol-5-yl)-2-methylpyridin-3-yl)oxy)cyclohexane-1-carboxylic Acid]	
14	CCOc1ccnc(NCc2c(C)noc2-c2ccc(O[C@H]3CCC[C@H](C(=O)O)C3)cn2)n1 [Example 23]	
29	Cc1noc(-c2ccc(O[C@H]3CCC[C@H](C(=O)O)C3)cn2)c1CNc1ncnc(C2CC2)n1 [Example 25]	
24	Cc1noc(-c2ccc(O[C@H]3CCC[C@H](C(=O)O)C3)cn2)c1CNc1ncnc(C2CCCC2)n1 [Example 28]	
